According to PubChem BioAssay AID1259407 (Chemical Carcinogenesis Research Information System (CCRIS), 2018):
Calls of active or inactive are those of the source. No rule for the calls is given here.

System: CCRIS mutagenicity, Ames/micronucleus/aberration tests
Test: CCRIS mutagenicity studies
[1] = Test System: AMES SALMONELLA TYPHIMURIUM, Strain/Indicator: TA98, Metabolic Activation: NONE, Method: PREINCUBATION

## Oc1ccccc1
End Point: IN VITRO CHROMOSOMAL ABERRATIONS, Test System: CHO CELLS, Metabolic Activation: NONE
  mutagenic call: inactive; negative
End Point: IN VITRO CHROMOSOMAL ABERRATIONS, Test System: CHO CELLS, Metabolic Activation: RAT, LIVER, S-9, AROCLOR 1254
  mutagenic call: active; positive
End Point: IN VITRO CHROMOSOMAL ABERRATIONS, Test System: V79 CELLS, Metabolic Activation: NONE
  mutagenic call: inactive; negative; effect more pronounced at ph 8 but no significant increase
End Point: IN VITRO MICRONUCLEUS, Test System: CHINESE HAMSTER OVARY (CHO-K5), Metabolic Activation: NONE
  mutagenic call: active; positive; no statistical analysis was performed
End Point: IN VITRO MICRONUCLEUS, Test System: CHINESE HAMSTER OVARY (CHO-K5), Metabolic Activation: RAT, LIVER, S-9, PHENOBARBITAL AND BETA-NAPHTHOFLAVONE
  mutagenic call: active; positive
End Point: IN VITRO MICRONUCLEUS, Test System: CHL/IU CELLS, Metabolic Activation: RAT, LIVER, S-9, PHENOBARBITAL AND 5,6-BENZOFLAVONE
  mutagenic call: active; positive
End Point: IN VITRO MICRONUCLEUS, Test System: CHO CELLS, Metabolic Activation: RAT, LIVER, S-9, AROCLOR 1254
  mutagenic call: active; positive
End Point: In vivo micronucleus, Test System: Bone marrow cells, Species: Mouse, Strain/Sex: CD1/Female, Route: Intraperitoneal
  mutagenic call: active; positive (highest dose only)
End Point: In vivo micronucleus, Test System: Bone marrow cells, Species: Mouse, Strain/Sex: CD1/Male, Route: Intraperitoneal
  mutagenic call: active; positive (highest dose only)
Test System: AMES SALMONELLA TYPHIMURIUM, Strain/Indicator: TA97, Metabolic Activation: NONE, Method: PREINCUBATION
  mutagenic call: inactive; negative
Test System: AMES SALMONELLA TYPHIMURIUM, Strain/Indicator: TA97, Metabolic Activation: RAT, LIVER, S-9, AROCLOR 1254, Method: PREINCUBATION
  mutagenic call: inactive; negative
Test System: AMES SALMONELLA TYPHIMURIUM, Strain/Indicator: TA98, Metabolic Activation: NONE, Method: FLUCTUATION (MICROTITER)
  mutagenic call: inactive; negative
[1]
  mutagenic call: inactive; negative
Test System: AMES SALMONELLA TYPHIMURIUM, Strain/Indicator: TA98, Metabolic Activation: RAT LIVER S-9, AROCLOR 1254, Method: FLUCTUATION (MICROTITER)
  mutagenic call: inactive; negative
Test System: AMES SALMONELLA TYPHIMURIUM, Strain/Indicator: TA98, Metabolic Activation: RAT LIVER S-9, PHENOBARBITAL AND BETA-NAPHTHOFLAVONE, Method: PREINCUBATION
  mutagenic call: inactive; negative
Test System: AMES SALMONELLA TYPHIMURIUM, Strain/Indicator: TA98, Metabolic Activation: RAT, LIVER, S-9, AROCLOR 1254, Method: PREINCUBATION
  mutagenic call: inactive; negative
Test System: AMES SALMONELLA TYPHIMURIUM, Strain/Indicator: TA98, Metabolic Activation: RAT, LIVER, S-9, AROCLOR 1254, Method: STANDARD PLATE
  mutagenic call: inactive; negative
Test System: AMES SALMONELLA TYPHIMURIUM, Strain/Indicator: TA100, Metabolic Activation: NONE, Method: FLUCTUATION TEST
  mutagenic call: inactive; negative
Test System: AMES SALMONELLA TYPHIMURIUM, Strain/Indicator: TA100, Metabolic Activation: NONE, Method: PREINCUBATION
  mutagenic call: inactive; negative
Test System: AMES SALMONELLA TYPHIMURIUM, Strain/Indicator: TA100, Metabolic Activation: RAT LIVER S-9, PHENOBARBITAL AND BETA-NAPHTHOFLAVONE, Method: PREINCUBATION
  mutagenic call: inactive; negative
Test System: AMES SALMONELLA TYPHIMURIUM, Strain/Indicator: TA100, Metabolic Activation: RAT, LIVER, S-9, AROCLOR 1254, Method: PREINCUBATION
  mutagenic call: inactive; negative
Test System: AMES SALMONELLA TYPHIMURIUM, Strain/Indicator: TA100, Metabolic Activation: RAT, LIVER, S-9, PCB, Method: FLUCTUATION TEST
  mutagenic call: active; positive
Test System: AMES SALMONELLA TYPHIMURIUM, Strain/Indicator: TA102, Metabolic Activation: NONE, Method: PREINCUBATION
  mutagenic call: inactive; negative
Test System: AMES SALMONELLA TYPHIMURIUM, Strain/Indicator: TA102, Metabolic Activation: RAT, LIVER, S-9, AROCLOR 1254, Method: PREINCUBATION
  mutagenic call: inactive; negative
Test System: AMES SALMONELLA TYPHIMURIUM, Strain/Indicator: TA104, Metabolic Activation: NONE, Method: PREINCUBATION
  mutagenic call: inactive; negative
Test System: AMES SALMONELLA TYPHIMURIUM, Strain/Indicator: TA104, Metabolic Activation: RAT, LIVER, S-9, AROCLOR 1254, Method: PREINCUBATION
  mutagenic call: inactive; negative
Test System: AMES SALMONELLA TYPHIMURIUM, Strain/Indicator: TA1535, Metabolic Activation: NONE, Method: PREINCUBATION
  mutagenic call: inactive; negative
Test System: AMES SALMONELLA TYPHIMURIUM, Strain/Indicator: TA1535, Metabolic Activation: RAT LIVER S-9, PHENOBARBITAL AND BETA-NAPHTHOFLAVONE, Method: PREINCUBATION
  mutagenic call: inactive; negative
Test System: AMES SALMONELLA TYPHIMURIUM, Strain/Indicator: TA1535, Metabolic Activation: RAT, LIVER, S-9, AROCLOR 1254, Method: PREINCUBATION
  mutagenic call: inactive; negative
Test System: AMES SALMONELLA TYPHIMURIUM, Strain/Indicator: TA1535, Metabolic Activation: RAT, LIVER, S-9, AROCLOR 1254, Method: STANDARD PLATE
  mutagenic call: inactive; negative
Test System: AMES SALMONELLA TYPHIMURIUM, Strain/Indicator: TA1537, Metabolic Activation: NONE, Method: FLUCTUATION (MICROTITER)
  mutagenic call: inactive; negative
Test System: AMES SALMONELLA TYPHIMURIUM, Strain/Indicator: TA1537, Metabolic Activation: NONE, Method: PREINCUBATION
  mutagenic call: inactive; negative
Test System: AMES SALMONELLA TYPHIMURIUM, Strain/Indicator: TA1537, Metabolic Activation: RAT LIVER S-9, AROCLOR 1254, Method: FLUCTUATION (MICROTITER)
  mutagenic call: inactive; negative
Test System: AMES SALMONELLA TYPHIMURIUM, Strain/Indicator: TA1537, Metabolic Activation: RAT LIVER S-9, PHENOBARBITAL AND BETA-NAPHTHOFLAVONE, Method: PREINCUBATION
  mutagenic call: inactive; negative
Test System: AMES SALMONELLA TYPHIMURIUM, Strain/Indicator: TA7001, Metabolic Activation: NONE, Method: FLUCTUATION (MICROTITER)
  mutagenic call: inactive; negative
Test System: AMES SALMONELLA TYPHIMURIUM, Strain/Indicator: TA7001, Metabolic Activation: RAT LIVER S-9, AROCLOR 1254, Method: FLUCTUATION (MICROTITER)
  mutagenic call: inactive; negative
Test System: AMES SALMONELLA TYPHIMURIUM, Strain/Indicator: TA7002, Metabolic Activation: NONE, Method: FLUCTUATION (MICROTITER)
  mutagenic call: inactive; negative
Test System: AMES SALMONELLA TYPHIMURIUM, Strain/Indicator: TA7002, Metabolic Activation: RAT LIVER S-9, AROCLOR 1254, Method: FLUCTUATION (MICROTITER)
  mutagenic call: inactive; negative
Test System: AMES SALMONELLA TYPHIMURIUM, Strain/Indicator: TA7003, Metabolic Activation: NONE, Method: FLUCTUATION (MICROTITER)
  mutagenic call: inactive; negative
Test System: AMES SALMONELLA TYPHIMURIUM, Strain/Indicator: TA7003, Metabolic Activation: RAT LIVER S-9, AROCLOR 1254, Method: FLUCTUATION (MICROTITER)
  mutagenic call: inactive; negative
Test System: AMES SALMONELLA TYPHIMURIUM, Strain/Indicator: TA7004, Metabolic Activation: NONE, Method: FLUCTUATION (MICROTITER)
  mutagenic call: inactive; negative
Test System: AMES SALMONELLA TYPHIMURIUM, Strain/Indicator: TA7004, Metabolic Activation: RAT LIVER S-9, AROCLOR 1254, Method: FLUCTUATION (MICROTITER)
  mutagenic call: inactive; negative
Test System: AMES SALMONELLA TYPHIMURIUM, Strain/Indicator: TA7005, Metabolic Activation: NONE, Method: FLUCTUATION (MICROTITER)
  mutagenic call: inactive; negative
Test System: AMES SALMONELLA TYPHIMURIUM, Strain/Indicator: TA7005, Metabolic Activation: RAT LIVER S-9, AROCLOR 1254, Method: FLUCTUATION (MICROTITER)
  mutagenic call: inactive; negative
Test System: AMES SALMONELLA TYPHIMURIUM, Strain/Indicator: TA7006, Metabolic Activation: NONE, Method: FLUCTUATION (MICROTITER)
  mutagenic call: inactive; negative
Test System: AMES SALMONELLA TYPHIMURIUM, Strain/Indicator: TA7006, Metabolic Activation: RAT LIVER S-9, AROCLOR 1254, Method: FLUCTUATION (MICROTITER)
  mutagenic call: inactive; negative
Test System: CHINESE HAMSTER V-79, Strain/Indicator: V-79/6-THIOGUANINE, Metabolic Activation: NONE
  mutagenic call: inactive; negative
Test System: E.COLI, Strain/Indicator: WP2UVRA, Metabolic Activation: NONE, Method: PREINCUBATION
  mutagenic call: inactive; negative
Test System: E.COLI, Strain/Indicator: WP2UVRA, Metabolic Activation: RAT LIVER S-9, PHENOBARBITAL AND BETA-NAPHTHOFLAVONE, Method: PREINCUBATION
  mutagenic call: inactive; negative
Test System: MOUSE LYMPHOMA, Strain/Indicator: L5178Y (TK+/TK-), Metabolic Activation: NONE, Method: SUSPENSION/PLATE
  mutagenic call: active; positive
Test System: MOUSE LYMPHOMA, Strain/Indicator: L5178Y (TK+/TK-), Metabolic Activation: RAT, LIVER, S-9, AROCLOR 1254, Method: SUSPENSION/PLATE
  mutagenic call: active; positive
Test System: UDS SHE CELLS, Strain/Indicator: THY INCORP, Metabolic Activation: NONE, Method: LIQUID SCINTILLATION COUNTING
  mutagenic call: active; positive

## Cc1cc2ccccc2cc1[N+](=O)[O-]
[1]
  mutagenic call: inactive; negative
